Data from ChEMBL document CHEMBL5042552, “Site-Specific Isopeptide Bond Formation: A Powerful Tool for the Generation of Potent and Nontoxic Antimicrobial Peptides” (J Med Chem, 2022).
Activity calls are given as the source filed them. No cut-off for these calls is given here. Starred links: 1 amine or outer side, 2 acyl side, 3 side chain; linkers in the order of their positions; H or OH if unused. Positions of bridges follow the written chain, without caps; N, C: chain ends. Non-standard residues stand in square brackets, D forms with d. Residues, ends and D or L forms follow the SMILES beside them. Groups on a side chain read outwards from the residue. Chains are numbered I, II in the order given. εLys = N[C@@H](CCCCN[*:1])C(=O)[*:2]

What was measured:
[1] = Hemolytic activity in human erythrocytes at 2.5 to 80 uM incubated for 1 hr by microplate reader assay; type: toxicity, cell-based; details: erythrocyte, dose 2.5-80 µM
[2] = system: RAW264.7; experiment: Cytotoxicity against mouse RAW264.7 cells assessed as reduction in cell viability at 10 to 100 uM incubated for 24 hrs by XTT assay; type: toxicity, cell-based; details: raw264.7, 24 h, dose 10-100 µM
[3] = system: HEK293; experiment: Cytotoxicity against HEK293 cells assessed as reduction in cell viability at 10 to 100 uM incubated for 24 hrs by XTT assay; type: toxicity, cell-based; details: human, hek293, 24 h, dose 10-100 µM
[4] = Stability in human plasma after 2 hrs by RP-HPLC method; type: ADME, cell-free
[5] = target: Trypsin (Homo sapiens, UniProt P07477+P07478+P35030); experiment: Stability of compound assessed as trypsin (unknown origin) mediated compound degradation at 100 uM measured after 30 mins by RP-HPLC method; type: ADME, protein assay; details: 0.5 h
[6] = system: Pseudomonas aeruginosa; experiment: Induction of membrane permeabilization in Pseudomonas aeruginosa at MIC concentration by SYTOX-green staining based flow cytometry method; type: functional
[7] = system: Cell membrane; experiment: Disruption of membrane integrity in Escherichia coli at MIC by […] green dye based confocal microscopy analysis
[8] = system: Cell membrane; experiment: Disruption of membrane integrity in Staphylococcus aureus at MIC by […] green dye based confocal microscopy analysis
[9] = system: Bacillus subtilis; experiment: Induction of membrane permeabilization in Bacillus subtilis at MIC concentration by SYTOX-green staining based flow cytometry method; type: functional
[10] = system: Cell membrane; experiment: Disruption of membrane integrity in Pseudomonas aeruginosa at MIC by […] green dye based confocal microscopy analysis
[11] = system: Escherichia coli; experiment: Induction of membrane permeabilization in Escherichia coli at MIC concentration by SYTOX-green staining based flow cytometry method; type: functional
[12] = system: Cell membrane; experiment: Disruption of membrane integrity in Bacillus subtilis at MIC by […] green dye based confocal microscopy analysis
[13] = system: Staphylococcus aureus; experiment: Induction of membrane permeabilization in Staphylococcus aureus at MIC concentration by SYTOX-green staining based flow cytometry method; type: functional
[14] = Hemolytic activity in human erythrocytes at 12.5 uM incubated for 1 hr by microplate reader assay; type: toxicity, cell-based; details: erythrocyte
[15] = Hemolytic activity in human erythrocytes at 80 uM incubated for 1 hr by microplate reader assay; type: toxicity, cell-based; details: erythrocyte
[16] = system: RAW264.7; experiment: Cytotoxicity against mouse RAW264.7 cells assessed as reduction in cell viability at 100 uM incubated for 24 hrs by XTT assay; type: toxicity, cell-based; details: raw264.7, 24 h

Stability [4]	Stability [5]	SMILES	Activity [1]	Activity [2]	Activity [3]	Activity [6] [%]	Activity [7]	Activity [8]	Activity [9] [%]	Activity [10]	Activity [11] [%]	Activity [12]	Activity [13] [%]	Activity [14]	Activity [15]	Activity [16]
Stable	Unstable	CC(C)C[C@H](NC(=O)[C@H](CC(C)C)NC(=O)[C@H](CCCCN)NC(=O)[C@H](CC(C)C)NC(=O)[C@H](CC(C)C)NC(=O)[C@H](CCCCN)NC(=O)[C@H](CCCCN)NC(=O)[C@H](CC(C)C)NC(=O)[C@H](CC(C)C)NC(=O)[C@H](CCCCN)NC(=O)[C@H](CCCCN)NC(=O)[C@H](CC(C)C)NC(=O)[C@H](CC(C)C)NC(=O)[C@@H](N)CCCCNC(=O)[C@@H](N)CC(C)C)C(N)=O (H-K(Leu)LLKKLLKKLLKLL-NH2)	Non-Toxic	Toxic	Toxic	–	–	–	–	–	–	–	–	–	–	–
Stable	Unstable	CC(C)C[C@H](NC(=O)[C@H](CC(C)C)NC(=O)[C@H](CCCCN)NC(=O)[C@H](CC(C)C)NC(=O)[C@H](CC(C)C)NC(=O)[C@H](CCCCN)NC(=O)[C@H](CCCCN)NC(=O)[C@H](CC(C)C)NC(=O)[C@H](CC(C)C)NC(=O)[C@H](CCCCN)NC(=O)[C@@H](N)CCCCNC(=O)[C@H](CC(C)C)NC(=O)[C@H](CC(C)C)NC(=O)[C@H](CCCCN)NC(=O)[C@@H](N)CC(C)C)C(N)=O (H-K([Leu-Leu-Lys-Leu])KLLKKLLKLL-NH2)	Non-Toxic	Toxic	Toxic	–	–	–	–	–	–	–	–	–	–	–
Stable	Unstable	CC(C)C[C@H](NC(=O)[C@H](CC(C)C)NC(=O)[C@@H](N)CCCCNC(=O)[C@H](CC(C)C)NC(=O)[C@H](CC(C)C)NC(=O)[C@H](CCCCN)NC(=O)[C@H](CCCCN)NC(=O)[C@H](CC(C)C)NC(=O)[C@H](CC(C)C)NC(=O)[C@H](CCCCN)NC(=O)[C@H](CCCCN)NC(=O)[C@H](CC(C)C)NC(=O)[C@H](CC(C)C)NC(=O)[C@H](CCCCN)NC(=O)[C@@H](N)CC(C)C)C(N)=O (H-LKLLKKLLKKLL[εLys]LL-NH2)	–	Toxic	Toxic	–	–	–	–	–	–	–	–	–	–	–
Stable	Unstable	CC(C)C[C@H](NC(=O)[C@H](CC(C)C)NC(=O)[C@H](CCCCN)NC(=O)[C@H](CC(C)C)NC(=O)[C@H](CC(C)C)NC(=O)[C@@H](N)CCCCNC(=O)[C@H](CCCCN)NC(=O)[C@H](CC(C)C)NC(=O)[C@H](CC(C)C)NC(=O)[C@H](CCCCN)NC(=O)[C@H](CCCCN)NC(=O)[C@H](CC(C)C)NC(=O)[C@H](CC(C)C)NC(=O)[C@H](CCCCN)NC(=O)[C@@H](N)CC(C)C)C(N)=O (H-LKLLKKLLK[εLys]LLKLL-NH2)	Non-Toxic	–	–	–	–	–	–	–	–	–	–	–	Non-Toxic	Non-Toxic
Stable	Unstable	CC(C)C[C@H](NC(=O)[C@H](CC(C)C)NC(=O)[C@H](CCCCN)NC(=O)[C@H](CC(C)C)NC(=O)[C@H](CC(C)C)NC(=O)[C@H](CCCCN)NC(=O)[C@H](CCCCN)NC(=O)[C@H](CC(C)C)NC(=O)[C@H](CC(C)C)NC(=O)[C@@H](N)CCCCNC(=O)[C@H](CCCCN)NC(=O)[C@H](CC(C)C)NC(=O)[C@H](CC(C)C)NC(=O)[C@H](CCCCN)NC(=O)[C@@H](N)CC(C)C)C(N)=O (I: H-KLLKKLLKLL-NH2 / II: H-LKLLK; amide I:1-II:C)	Non-Toxic	Toxic	Toxic	–	–	–	–	–	–	–	–	–	–	–

SMILES	Stability [4]	Stability [5]	Activity [1]	Activity [2]	Activity [3]	Activity [6] [%]	Activity [7]	Activity [8]	Activity [9] [%]	Activity [10]	Activity [11] [%]	Activity [12]	Activity [13] [%]	Activity [14]	Activity [15]	Activity [16]
CC(C)C[C@H](NC(=O)[C@H](CC(C)C)NC(=O)[C@H](CCCCN)NC(=O)[C@H](CC(C)C)NC(=O)[C@H](CC(C)C)NC(=O)[C@H](CCCCN)NC(=O)[C@H](CCCCN)NC(=O)[C@H](CC(C)C)NC(=O)[C@H](CC(C)C)NC(=O)[C@H](CCCCN)NC(=O)[C@H](CCCCN)NC(=O)[C@H](CC(C)C)NC(=O)[C@H](CC(C)C)NC(=O)[C@H](CCCCN)NC(=O)[C@@H](N)CC(C)C)C(N)=O (H-LKLLKKLLKKLLKLL-NH2)	Stable	Unstable	–	Toxic	Toxic	98	inactive	inactive	41	inactive	98	inactive	46	Toxic	–	–
CC(C)C[C@H](NC(=O)[C@H](CC(C)C)NC(=O)[C@H](CCCCN)NC(=O)[C@H](CC(C)C)NC(=O)[C@H](CC(C)C)NC(=O)[C@H](CCCCN)NC(=O)[C@@H](N)CCCCNC(=O)[C@H](CC(C)C)NC(=O)[C@H](CC(C)C)NC(=O)[C@H](CCCCN)NC(=O)[C@H](CCCCN)NC(=O)[C@H](CC(C)C)NC(=O)[C@H](CC(C)C)NC(=O)[C@H](CCCCN)NC(=O)[C@@H](N)CC(C)C)C(N)=O (H-LKLLKKLL[εLys]KLLKLL-NH2)	Stable	–	–	–	–	98	Active	Active	98	Active	98	Active	89	–	Non-Toxic	Non-Toxic
